Patent EP0428423A2, “Aryloxy alkyl benzenes, processes for their preparation and pharmaceutical compositions containing them” (LIPHA S.A., priority 1989, dated 1991)

Target: T1, COTRANSPORT Na-K (Homo sapiens, UniProt P55011)
T1 construct: systèmes de transport du sodium et du potassium des érythrocytes humains; endogenous in cells; host or cells: human erythrocytes
T1 sequence (P55011 1-1212): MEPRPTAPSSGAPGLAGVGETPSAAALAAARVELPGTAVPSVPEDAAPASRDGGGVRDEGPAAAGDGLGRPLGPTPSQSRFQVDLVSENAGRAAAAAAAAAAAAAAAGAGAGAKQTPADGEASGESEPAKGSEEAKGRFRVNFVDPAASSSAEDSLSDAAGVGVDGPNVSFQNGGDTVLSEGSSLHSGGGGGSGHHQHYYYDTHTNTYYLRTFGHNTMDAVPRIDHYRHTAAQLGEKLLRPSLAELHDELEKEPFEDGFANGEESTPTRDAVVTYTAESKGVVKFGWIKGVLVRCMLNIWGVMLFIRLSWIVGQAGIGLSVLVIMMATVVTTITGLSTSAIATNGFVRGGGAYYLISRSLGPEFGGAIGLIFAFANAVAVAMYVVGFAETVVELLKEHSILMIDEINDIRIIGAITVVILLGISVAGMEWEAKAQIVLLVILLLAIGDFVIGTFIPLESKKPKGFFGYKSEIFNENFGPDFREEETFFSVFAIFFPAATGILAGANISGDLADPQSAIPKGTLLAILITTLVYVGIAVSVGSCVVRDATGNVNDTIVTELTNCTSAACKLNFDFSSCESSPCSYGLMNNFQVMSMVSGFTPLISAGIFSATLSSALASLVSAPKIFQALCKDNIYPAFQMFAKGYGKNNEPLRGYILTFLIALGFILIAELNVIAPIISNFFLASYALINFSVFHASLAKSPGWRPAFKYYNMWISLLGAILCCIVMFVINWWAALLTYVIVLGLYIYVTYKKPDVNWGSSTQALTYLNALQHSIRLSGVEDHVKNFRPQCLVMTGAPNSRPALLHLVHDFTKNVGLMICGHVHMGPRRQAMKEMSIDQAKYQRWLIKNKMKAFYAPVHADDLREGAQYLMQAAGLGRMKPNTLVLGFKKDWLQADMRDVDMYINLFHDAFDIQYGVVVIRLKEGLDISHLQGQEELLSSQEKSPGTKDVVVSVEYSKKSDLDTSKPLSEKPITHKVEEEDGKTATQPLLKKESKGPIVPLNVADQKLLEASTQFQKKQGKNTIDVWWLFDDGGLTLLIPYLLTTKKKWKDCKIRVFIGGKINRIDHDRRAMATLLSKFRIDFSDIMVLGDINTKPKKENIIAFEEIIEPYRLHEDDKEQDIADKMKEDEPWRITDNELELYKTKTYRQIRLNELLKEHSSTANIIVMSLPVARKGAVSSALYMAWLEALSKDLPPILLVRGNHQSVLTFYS
Assay: Na-K cotransport of human erythrocytes
Type: cell-based, ERYTHROCYTES HUMAINS
Details: human erythrocytes; read-out: EFFET SUR LE COTRANSPORT Na-K IC 50
Source text: Cet effet a été étudié selon la méthodologie décrite par G. GARAY et coll. dans Naunyn-Schmidberg's Arch. Pharmakol. […] Pharm.

IC50: > 600 µM
Structure (SMILES): Cc1ccc(O)c(CCOc2ccccc2)c1 [ex 36]
